PubChem BioAssay (NCI)
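Five compound concentrations were applied to cells in 96-well plates for 48 hours; endpoints were derived by simple linear interpolation of the resulting dose-response curve. GI50: concentration for 50% inhibition of growth. TGI: concentration producing complete growth inhibition.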

Experiments:
Assay in all cases: growth of human tumour cells (NCI), 48 h
COLO 205 colon = test system: COLO 205 colon
HOP-92 NSCLC = test system: HOP-92 NSCLC
M14 melanoma = test system: M14 melanoma
NCI/ADR-RES ovarian = test system: NCI/ADR-RES ovarian
OVCAR-8 ovarian = test system: OVCAR-8 ovarian
SNB-75 CNS = test system: SNB-75 CNS
T-47D breast = test system: T-47D breast
U251 CNS = test system: U251 CNS
DLD-1 colon = test system: DLD-1 colon
M19-MEL melanoma = test system: M19-MEL melanoma

Row | SMILES | TGI (COLO 205 colon) | TGI (HOP-92 NSCLC) | TGI (M14 melanoma) | TGI (NCI/ADR-RES ovarian) | TGI (OVCAR-8 ovarian) | TGI (SNB-75 CNS) | TGI (T-47D breast) | TGI (U251 CNS) | GI50 (COLO 205 colon) | GI50 (HOP-92 NSCLC) | GI50 (M14 melanoma) | GI50 (NCI/ADR-RES ovarian) | GI50 (OVCAR-8 ovarian) | GI50 (SNB-75 CNS) | GI50 (T-47D breast) | GI50 (U251 CNS) | TGI (DLD-1 colon) | TGI (M19-MEL melanoma)
1 | CC(=O)C1=C(O)/C(=C\c2ccco2)OC1=O | > 10 µM | > 10 µM | > 10 µM | > 10 µM | > 10 µM | > 10 µM | > 10 µM | > 10 µM |  |  |  |  |  |  |  |  |  | 
2 | O=C(CN=Cc1cccs1)CSC(c1ccccc1)c1ccccc1 | 24 µM | 51.1 µM | 55.5 µM | 88.8 µM | 55.5 µM | > 100 µM | 84.3 µM | > 100 µM | 11.7 µM | 20.7 µM | 22 µM | 24.9 µM | 22.6 µM | 30.5 µM | 20.1 µM | 34.5 µM |  | 
3 | COC1C(CO)OC(n2c3ccccc3c3c4c(c5c6ccccc6[nH]c5c32)C(=O)NC4=O)C(O)C1OC(=O)C(N)CCCCN (stereo not drawn) | > 17.2 µM | 12.9 µM | > 11 µM | > 50 µM | > 50 µM | > 22.8 µM | > 10.3 µM | > 11.5 µM | 1.27 µM | 1.54 µM | 0.689 µM | > 50 µM | 0.49 µM | 3.62 µM |  | 0.282 µM |  | 
4 | C#Cc1ccc(-n2c(/C=C/c3cc(OC)c(OC)c(OC)c3)nc3ncccc3c2=O)cc1 | 11.9 µM | 7.72 µM | > 100 µM | 34.5 µM | > 100 µM | > 100 µM | > 100 µM | > 100 µM | 3.19 µM | 2.31 µM | 4.94 µM | 3.61 µM | 9.67 µM | 3.88 µM | 5.85 µM | 9.93 µM |  | 
5 | O=C1CC2Sc3ccccc3N=C2N1c1ccc(Cl)cc1Cl (stereo not drawn) | > 100 µM | > 100 µM | > 100 µM |  | > 100 µM | > 100 µM |  | > 100 µM |  |  |  |  |  |  |  |  | > 100 µM | > 100 µM
6 | CC(C)=C1CCC(CN2CCCC2)C1=O (stereo not drawn) |  | 58.5 µM | 34.1 µM |  | > 100 µM | > 100 µM |  |  |  |  |  |  |  |  |  |  | 33.7 µM | 37.4 µM
7 | Cc1cccc(N2C(=O)/C(=C/c3ccc(N(CCC#N)CCC#N)cc3C)N=C2c2cc([N+](=O)[O-])ccc2Cl)c1 | > 100 µM | > 100 µM | > 100 µM |  | > 100 µM | > 100 µM |  | > 100 µM |  |  |  |  |  |  |  |  | > 100 µM | > 100 µM
8 | COc1cc2c(cc1OC)[C@H]1C(=O)c3cc4c(cc3[C@H]1N(C)C2=O)OCO4 | > 46.4 µM | > 89.8 µM | > 76.6 µM | > 100 µM | > 100 µM | > 100 µM | > 100 µM | > 100 µM |  |  |  |  |  |  |  |  |  | 
9 | O=C(OCc1nc2ccc(Br)cc2c(=O)n1-c1ccccc1)c1ccccc1O | > 100 µM | > 100 µM | > 100 µM |  | > 100 µM | > 100 µM |  | > 100 µM |  |  |  |  |  |  |  |  | > 100 µM | > 100 µM
10 | CCOC(=O)NNC(=O)NC12CC3CC(CC(C3)C1)C2 | > 100 µM | > 100 µM | > 100 µM |  | > 100 µM | > 100 µM |  | > 100 µM |  |  |  |  |  |  |  |  | > 100 µM | > 100 µM
11 | CCOC(=N)CC(=O)NC(C)c1ccccc1 (stereo not drawn) | > 100 µM |  | > 100 µM |  | > 100 µM | > 100 µM |  | > 100 µM |  |  |  |  |  |  |  |  | > 100 µM | > 100 µM
12 | CCSc1nc(N)c2cnn(C)c2n1 | > 100 µM | > 100 µM | > 100 µM | > 100 µM | > 100 µM | > 100 µM | > 100 µM | > 100 µM | 29.9 µM | 77.4 µM | 52 µM | > 100 µM | 49.4 µM | 68.9 µM | 0.0485 µM | 40.6 µM |  | 
13 | O=C1/C(=C/c2ccccc2)CN(C(=O)OCC(Cl)(Cl)Cl)C/C1=C\c1ccccc1 | 11.2 µM |  | 4.65 µM |  | 3.78 µM | 13.6 µM |  | 3.28 µM |  |  |  |  |  |  |  |  | 3.77 µM | 2.79 µM
14 | N#CC1(C#N)C2C=CC(C3CCC=C32)C1(C#N)C#N (stereo not drawn) | 3.66 µM | > 10 µM | > 10 µM | > 10 µM | > 10 µM | > 10 µM | > 8.87 µM | > 10 µM |  |  |  |  |  |  |  |  |  | 
15 | Cc1cccc(CC(C)(C)C)c1NC(=O)C(=O)C(C(=O)c1ccc2ccccc2c1)C1OC(=O)c2ccccc21 (stereo not drawn) | 92 µM | 8.54 µM | > 100 µM |  |  |  |  | 17.8 µM |  |  |  |  |  |  |  |  | 35.1 µM | 64.1 µM
16 | C[C@]12CC[C@@H]3c4ccc(O)cc4CC[C@H]3[C@@H]1CC[C@@H]2NS(=O)(=O)c1ccc(-c2ccccc2)cc1 | 3.38 µM | 9.68 µM | 12.9 µM | > 100 µM | > 100 µM | 55.2 µM | 49 µM | 32.6 µM | 1.86 µM | 2.09 µM | 3.46 µM | 3.87 µM | 4.69 µM | 3.5 µM | 3.47 µM | 4 µM |  | 
17 | CN1CC(C(=O)NC2(C)OC3(O)C4CCCN4C(=O)C(Cc4ccccc4)N3C2=O)C=C2c3cccc4[nH]cc(c34)CC21 (stereo not drawn) | 40 µM | 38.6 µM | 81.4 µM | 95.1 µM | 53.7 µM | > 100 µM | > 100 µM | 38.2 µM |  |  |  |  |  |  |  |  |  | 
18 | Cc1[nH]c(=O)nc(N/N=C/c2ccc(O)cc2)c1C(=O)Nc1ccc(Cl)cc1 | > 100 µM |  | > 100 µM |  | > 100 µM | > 100 µM |  | > 100 µM |  |  |  |  |  |  |  |  | > 100 µM | > 100 µM
19 | CC(C)(C)NCCC(O)c1cc(C(F)(F)F)nc2c(C(F)(F)F)cccc12 (stereo not drawn) | 25.5 µM | 26.2 µM | 19.4 µM | 15.2 µM | 17.8 µM | 26.5 µM | 30.9 µM | 20.2 µM |  |  |  |  |  |  |  |  |  | 
20 | O=c1[nH]c(-c2ccccn2)nc2sc3c(c12)CCCCCC3 | > 100 µM | > 100 µM | > 100 µM | > 100 µM | > 100 µM | > 100 µM | > 100 µM | > 100 µM | 5.85 µM | 3.9 µM | 4.09 µM | 0.961 µM | 4.33 µM | 85.1 µM | 5.54 µM | 2.16 µM |  | 
21 | CC(C)C[C@H](NC(=O)[C@@H](O)[C@H](N)Cc1ccccc1)C(=O)O | > 100 µM | > 100 µM | > 100 µM | > 100 µM | > 100 µM | > 100 µM | > 100 µM | > 100 µM |  |  |  |  |  |  |  |  |  | 
